Assay [1] relates to BAF3 cells. The assay can be described thus: BAF3 Cell Proliferation Assay (CellTiter-Glo, without RET driven, IL-3). In kind it is cell-based. The following applies: Mus musculus; growth inhibition in BAF3 cells, 72 hours, with IL-3; read-out: BAF3 Cellular Activity. The procedure:
Compounds disclosed herein were tested for the inhibition BAF3 cells proliferation without RET driven by CellTiter-Glo assay. In this assay, a complete media was prepared by adding 10% fetal bovine serum and 1 ng/ml IL-3 to RPMI-1640 medium (Life technology) for BAF3 cells. BAF3 cells were added to each of 88 wells of a 96 well plate at a seeding density of 2,000 cells/well/95 μL. The cells were allowed to attach to the plate by incubating at 37° C. for 24 hours. The compound was dissolved in DMSO (SIGMA). A solution of test compound was prepared in complete media by serial dilution to obtain the following concentrations: 200 μM, 66.7 μM, 22.2 μM, 7.4 μM, 2.5 μM, 0.82 μM, 0.27 μM, 0.091 μM and […]. The test compound solution (5 μL) was added to each of 80 cell-containing wells. The final concentrations of the compound were following: 10 μM, 3.33 μM, 1.11 μM, 0.37 μM, 0.12 μM, 0.041 μM, 0.014 μM, 0.0046 μM and 0.0015 μM. The final concentration of DMSO is 0.1%. To the 8 remaining cell-containing wells, only complete media (containing 0.1% DMSO) was added to form a control group in order to measure maximal proliferation. To the remaining 8 empty wells, complete media was added to for a vehicle control group in order to measure background. The plates were incubated at 37° C. for 72 hours. 50 μl of CellTiter-Glo® Reagent was added to each well. The contents were mixed for 2 minutes on an orbital shaker to induce cell lysis, and then were incubated at room temperature for 10 minutes to stabilize luminescent signal. Luminescence was recorded on Paradigm. Cell viability (CV %) was calculated relative to vehicle (DMSO) treated control wells. The IC50 was calculated using GraphPad Prism.

The target in assay [2] is T1, BAF3-KIF5B-RET cells (Homo sapiens, UniProt P07949).
T1 construct: fused on or other part: P33176 (Kinesin-1 heavy chain)
T1 sequence (P07949 whole entry, change not shown, the tested form may be a part): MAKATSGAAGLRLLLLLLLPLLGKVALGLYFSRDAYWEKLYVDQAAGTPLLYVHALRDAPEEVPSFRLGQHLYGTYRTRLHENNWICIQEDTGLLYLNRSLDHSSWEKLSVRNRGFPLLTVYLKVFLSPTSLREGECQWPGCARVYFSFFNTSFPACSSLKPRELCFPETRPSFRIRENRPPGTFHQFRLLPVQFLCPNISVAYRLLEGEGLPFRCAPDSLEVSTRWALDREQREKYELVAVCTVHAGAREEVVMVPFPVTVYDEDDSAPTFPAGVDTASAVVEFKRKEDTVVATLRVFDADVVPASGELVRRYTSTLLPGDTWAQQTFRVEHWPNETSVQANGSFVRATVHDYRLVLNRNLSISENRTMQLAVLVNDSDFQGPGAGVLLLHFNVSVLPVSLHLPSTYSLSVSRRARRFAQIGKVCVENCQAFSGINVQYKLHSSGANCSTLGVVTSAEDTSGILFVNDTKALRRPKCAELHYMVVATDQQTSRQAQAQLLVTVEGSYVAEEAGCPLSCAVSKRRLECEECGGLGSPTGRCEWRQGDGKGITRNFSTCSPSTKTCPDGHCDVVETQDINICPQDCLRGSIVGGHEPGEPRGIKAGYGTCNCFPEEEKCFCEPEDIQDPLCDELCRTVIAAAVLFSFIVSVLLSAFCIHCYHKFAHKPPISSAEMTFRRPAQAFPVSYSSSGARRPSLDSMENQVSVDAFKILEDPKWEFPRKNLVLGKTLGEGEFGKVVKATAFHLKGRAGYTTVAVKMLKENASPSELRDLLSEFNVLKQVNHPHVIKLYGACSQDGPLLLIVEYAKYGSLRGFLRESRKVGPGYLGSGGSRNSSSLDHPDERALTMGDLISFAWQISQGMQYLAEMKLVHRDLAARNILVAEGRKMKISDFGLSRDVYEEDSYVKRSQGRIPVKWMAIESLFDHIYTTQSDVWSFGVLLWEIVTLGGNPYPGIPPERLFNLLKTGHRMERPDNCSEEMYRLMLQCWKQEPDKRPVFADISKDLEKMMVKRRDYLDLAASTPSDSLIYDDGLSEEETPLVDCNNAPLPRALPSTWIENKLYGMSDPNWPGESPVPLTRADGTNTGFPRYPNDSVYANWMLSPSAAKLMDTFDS
The assay can be described thus: BAF3-KIF5B-RET Cell Proliferation Assay (CellTiter-Glo). In kind it is cell-based. The note with it: growth inhibition, 72 hours; Table 2; read-out: BA/F3-KIF5B-RET Cellular activity. The protocol: Compounds disclosed herein were tested for the inhibition of RET by a cancer cell proliferation assay commonly known as CellTiter-Glo assay. In this assay, a complete media was prepared by adding 10% fetal bovine serum to RPMI-1640 medium (Life technology) for RET-driven cancer cells (BAF3-FIF5B-RET, Ba/F3-KIF5B-RET-G810R, Ba/F3-TEL-RET-M918T or Ba/F3-KIF5B-RET-V804M). Individual RET-driven type of cells were added to each of 88 wells of a 96 well plate at a seeding density of 2,000 cells/well/95 μL. The cells were allowed to attach to the plate by incubating at 37° C. for 24 hours. The compound was dissolved in DMSO (SIGMA). A solution of test compound was prepared in complete media by serial dilution to obtain the following concentrations: 20 μM, 6.67 μM, 2.22 μM, 0.74 μM, 0.25 μM, 0.082 μM, 0.027 μM, 0.0091 μM and 0.0030 μM. The test compound solution (5 μL) was added to each of 80 cell-containing wells. The final concentrations of the compound were following: 1 μM, 0.33 μM, 0.11 μM, 0.037 μM, 0.012 μM, 0.0041 μM, 0.0014 μM, 0.00046 μM and 0.00015 μM. The final concentration of DMSO is 0.1%. To the 8 remaining cell-containing wells, only complete media (containing 0.1% DMSO) was added to form a control group in order to measure maximal proliferation. To the remaining 8 empty wells, complete media was added to for a vehicle control group in order to measure background. The plates were incubated at 37° C. for 72 hours. 50 μl of CellTiter-Glo® Reagent was added to each well. Mix contents for 2 minutes on an orbital shaker to induce cell lysis. Incubate at room temperature for 10 minutes to stabilize luminescent signal. Record luminescence on Paradigm. Cell viability (CV %) was calculated relative to vehicle (DMSO) treated control wells. The IC50 was calculated using GraphPad Prism.

As for `COc1ccc(CN2C3CC2CN(c2cnc(-c4cc(-c5ccc(C(C)(C)O)cn5)cn5ncc(C#N)c45)cn2)C3)cn1` [Example 1, 6-(5-(2-hydroxypropan-2-yl)pyridin-2-yl)-4-(5-(6-((6-methoxypyridin-3-yl)methyl)-3,6-diazabicyclo[3.1.1]heptan-3-yl)pyrazin-2-yl)pyrazolo[1,5-a]pyridine-3-carbonitrile], the IC50 in assay [1] came to 1020 nM. In addition, the GI50 in assay [2] came out at 1.8 nM.
The matching figures for `COc1ccc(C(=O)NC23CC4CC(C2)N(c2cnc(-c5cc(-c6ccc(C(C)(C)O)cn6)cn6ncc(C#N)c56)cn2)C(C4)C3)cn1` [Example 2, N-((1R,3S,5s,7s)-2-(5-(3-cyano-6-(5-(2-hydroxypropan-2-yl)pyridin-2-yl)pyrazolo[1,5-a]pyridin-4-yl)pyrazin-2-yl)-2-azaadamantan-5-yl)-6-methoxynicotinamide]: 362 nM and 8.9 nM.
Regarding `CC(C)(O)c1ccc(-c2cc(-c3ccc(N4C[C@@H]5[C@H](C4)[C@@H]5NC(=O)c4ncccc4Cl)nc3)c3c(C#N)cnn3c2)nc1` [Example 3, 3-chloro-N-((1R,5S,6r)-3-(5-(3-cyano-6-(5-(2-hydroxypropan-2-yl)pyridin-2-yl)pyrazolo[1,5-a]pyridin-4-yl)pyridin-2-yl)-3-azabicyclo[3.1.0]hexan-6-yl)picolinamide], in assay [1], the IC50 is > 10000 nM. Moreover, the GI50 in assay [2] worked out at 110 nM.
As to `CC(C)(O)c1ccc(-c2cc(-c3cnc(N4C[C@@H]5C[C@@](C)(NC(=O)c6ncccc6Cl)C[C@@H]5C4)cn3)c3c(C#N)cnn3c2)nc1` [Example 6, 3-chloro-N-((3aR,5s,6aS)-2-(5-(3-cyano-6-(5-(2-hydroxypropan-2-yl)pyridin-2-yl)pyrazolo[1,5-a]pyridin-4-yl)pyrazin-2-yl)-5-methyloctahydrocyclopenta[c]pyrrol-5-yl)picolinamide], the IC50 in assay [1] worked out at 38.6 nM. Moreover, in assay [2], the GI50 worked out at 3.5 nM.
The matching figures for `COc1ccc(CN2C3CC2CN(c2ccc(-c4cc(-c5cncc(C(C)(C)O)c5)cn5ncc(C#N)c45)cn2)C3)cn1` [Example 7, 6-(5-(2-hydroxypropan-2-yl)pyridin-3-yl)-4-(6-(6-((6-methoxypyridin-3-yl)methyl)-3,6-diazabicyclo[3.1.1]heptan-3-yl)pyridin-3-yl)pyrazolo[1,5-a]pyridine-3-carbonitrile]: > 10000 nM and 48.1 nM.
Turning to `COc1ccc(CN2C3CC2CN(c2ccc(-c4cc(-c5ccc(C(C)(C)N)nc5)cn5ncc(C#N)c45)cn2)C3)cn1` [Example 14, 6-(6-(2-aminopropan-2-yl)pyridin-3-yl)-4-(6-(6-((6-methoxypyridin-3-yl)methyl)-3,6-diazabicyclo[3.1.1]heptan-3-yl)pyridin-3-yl)pyrazolo[1,5-a]pyridine-3-carbonitrile], in assay [1], the IC50 was 1000 nM. The GI50 in assay [2] stood at 2.8 nM.
The matching figures for `COc1ccc(CN2C3CC2CN(c2ccc(-c4cc(-c5cnc(C(C)(C)O)cn5)cn5ncc(C#N)c45)cn2)C3)cn1` [Example 15, 6-(5-(2-hydroxypropan-2-yl)pyrazin-2-yl)-4-(6-(6-((6-methoxypyridin-3-yl)methyl)-3,6-diazabicyclo[3.1.1]heptan-3-yl)pyridin-3-yl)pyrazolo[1,5-a]pyridine-3-carbonitrile]: 2600 nM and 3.9 nM.
On to `COc1ccc(CN2C3CC2CN(c2ccc(-c4cc(-c5ccc(C(C)(C)N)cn5)cn5ncc(C#N)c45)cn2)C3)cn1` [Example 16, 6-(5-(2-aminopropan-2-yl)pyridin-2-yl)-4-(6-(6-((6-methoxypyridin-3-yl)methyl)-3,6-diazabicyclo[3.1.1]heptan-3-yl)pyridin-3-yl)pyrazolo[1,5-a]pyridine-3-carbonitrile], for which the IC50 in assay [1] is 1080 nM. Besides, the GI50 in assay [2] was 2.2 nM.
For the compound `COc1ccc(CN2C3CC2CN(c2ccc(-c4cc(-c5ccc(C6(N)CC6)cn5)cn5ncc(C#N)c45)cn2)C3)cn1` [Example 17, 6-(5-(1-aminocyclopropyl)pyridin-2-yl)-4-(6-(6-((6-methoxypyridin-3-yl)methyl)-3,6-diazabicyclo[3.1.1]heptan-3-yl)pyridin-3-yl)pyrazolo[1,5-a]pyridine-3-carbonitrile], the IC50 in assay [1] came out at 2770 nM. The GI50 in assay [2] came out at 4.2 nM.
The matching figures for `COc1ccc(CN2C3CC2CN(c2ccc(-c4cc(-c5ccc(C(C)(C)O)nn5)cn5ncc(C#N)c45)cn2)C3)cn1` [Example 19, 6-(6-(2-hydroxypropan-2-yl)pyridazin-3-yl)-4-(6-(6-((6-methoxypyridin-3-yl)methyl)-3,6-diazabicyclo[3.1.1]heptan-3-yl)pyridin-3-yl)pyrazolo[1,5-a]pyridine-3-carbonitrile]: 1260 nM and 1.7 nM.
Take `COc1ccc(CN2C3CC2CN(c2cnc(-c4cc(-c5ccc(C(C)(C)O)nn5)cn5ncc(C#N)c45)cn2)C3)cn1` [Example 20, 6-(6-(2-hydroxypropan-2-yl)pyridazin-3-yl)-4-(5-(6-((6-methoxypyridin-3-yl)methyl)-3,6-diazabicyclo[3.1.1]heptan-3-yl)pyrazin-2-yl)pyrazolo[1,5-a]pyridine-3-carbonitrile]: in assay [1], the IC50 amounted to 1480 nM. In assay [2], the GI50 turned out to be 6.7 nM.
Consider `CC(C)(O)c1ccc(-c2cc(-c3ccc(N4C[C@@H]5[C@H](C4)[C@H]5NC(=O)c4ncccc4Cl)nc3)c3c(C#N)cnn3c2)nc1` [Example 21, 3-chloro-N-((1R,5S,6s)-3-(5-(3-cyano-6-(5-(2-hydroxypropan-2-yl)pyridin-2-yl)pyrazolo[1,5-a]pyridin-4-yl)pyridin-2-yl)-3-azabicyclo[3.1.0]hexan-6-yl)picolinamide], for which the IC50 in assay [1] came out at 351 nM. Further, the GI50 in assay [2] came out at 28.8 nM.
The matching figures for `COc1ccc(CN2C3CC2CN(c2ccc(-c4cc(-c5ccc(C(C)(C)O)cc5)cn5ncc(C#N)c45)cn2)C3)cn1` [Example 22, 6-(4-(2-hydroxypropan-2-yl)phenyl)-4-(6-(6-((6-methoxypyridin-3-yl)methyl)-3,6-diazabicyclo[3.1.1]heptan-3-yl)pyridin-3-yl)pyrazolo[1,5-a]pyridine-3-carbonitrile]: 756 nM and 0.7 nM.
As for `COc1ccc(CN2C3CC2CN(c2ccc(-c4cc(-c5ncc(C(C)(C)O)cc5F)cn5ncc(C#N)c45)cn2)C3)cn1` [Example 24, 6-(3-fluoro-5-(2-hydroxypropan-2-yl)pyridin-2-yl)-4-(6-(6-((6-methoxypyridin-3-yl)methyl)-3,6-diazabicyclo[3.1.1]heptan-3-yl)pyridin-3-yl)pyrazolo[1,5-a]pyridine-3-carbonitrile], the IC50 in assay [1] worked out at 2540 nM. For the same compound, the GI50 in assay [2] amounted to 3.5 nM.
The matching figures for `COc1ccc(C(=O)N2C3CC2CN(c2ccc(-c4cc(-c5ccc(C(C)(C)O)cn5)cn5ncc(C#N)c45)cn2)C3)cn1` [Example 25, 6-(5-(2-hydroxypropan-2-yl)pyridin-2-yl)-4-(6-(6-(6-methoxynicotinoyl)-3,6-diazabicyclo[3.1.1]heptan-3-yl)pyridin-3-yl)pyrazolo[1,5-a]pyridine-3-carbonitrile]: 6650 nM and 2.7 nM.

These data come from US20260184726A1, “HETEROCYCLIC COMPOUNDS AS KINASE INHIBITORS, COMPOSITIONS, AND METHODS OF USE THEREOF” (JS INNOMED HOLDINGS LTD., priority 2022, published 2026).
